Experimental data taken from the supplement of paper PMC11451515.

Tested on: NOMO1
Assay: cell viability relative to DMSO control; higher = less cytotoxic
Settings: 48 h
Summary of the method: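 NOMO1 or SEM cells were plated at 500 cells/well and P12-Ichikawa cells at 1000 cells/well in 1536-well plates (5 μl), after each leukemia line had been adapted for at least four passages in each medium. Pin dosing delivered library compounds in DMSO at 11 threefold concentrations, 47 μM to 0.79 nM. CellTiter-Glo One luminescence was read after 48 h at 37°C. Viability is reported as a per-plate percentage of DMSO wells, with cell-free wells as background.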

[1] = HPLM + 10% dialyzed FBS, 0.000781 µM
[2] = HPLM + 10% dialyzed FBS, 0.00234 µM
[3] = HPLM + 10% dialyzed FBS, 0.00702 µM
[4] = HPLM + 10% dialyzed FBS, 0.0211 µM
[5] = HPLM + 10% dialyzed FBS, 0.0632 µM
[6] = HPLM + 10% dialyzed FBS, 0.19 µM
[7] = HPLM + 10% dialyzed FBS, 0.569 µM
[8] = HPLM + 10% dialyzed FBS, 1.71 µM
[9] = HPLM + 10% dialyzed FBS, 5.12 µM
[10] = HPLM + 10% dialyzed FBS, 15.4 µM
[11] = HPLM + 10% dialyzed FBS, 46.1 µM
[12] = RPMI 5 mM glucose + 10% FBS, 0.000781 µM
[13] = RPMI 5 mM glucose + 10% FBS, 0.00234 µM
[14] = RPMI 5 mM glucose + 10% FBS, 0.00702 µM
[15] = RPMI 5 mM glucose + 10% FBS, 0.0211 µM
[16] = RPMI 5 mM glucose + 10% FBS, 0.0632 µM
[17] = RPMI 5 mM glucose + 10% FBS, 0.19 µM
[18] = RPMI 5 mM glucose + 10% FBS, 0.569 µM
[19] = RPMI 5 mM glucose + 10% FBS, 1.71 µM
[20] = RPMI 5 mM glucose + 10% FBS, 5.12 µM
[21] = RPMI 5 mM glucose + 10% FBS, 15.4 µM
[22] = RPMI 5 mM glucose + 10% FBS, 46.1 µM
[23] = RPMI 5 mM glucose + 10% dialyzed FBS, 0.000781 µM
[24] = RPMI 5 mM glucose + 10% dialyzed FBS, 0.00234 µM
[25] = RPMI 5 mM glucose + 10% dialyzed FBS, 0.00702 µM
[26] = RPMI 5 mM glucose + 10% dialyzed FBS, 0.0211 µM
[27] = RPMI 5 mM glucose + 10% dialyzed FBS, 0.0632 µM
[28] = RPMI 5 mM glucose + 10% dialyzed FBS, 0.19 µM
[29] = RPMI 5 mM glucose + 10% dialyzed FBS, 0.569 µM
[30] = RPMI 5 mM glucose + 10% dialyzed FBS, 1.71 µM
[31] = RPMI 5 mM glucose + 10% dialyzed FBS, 5.12 µM
[32] = RPMI 5 mM glucose + 10% dialyzed FBS, 15.4 µM
[33] = RPMI 5 mM glucose + 10% dialyzed FBS, 46.1 µM

| Compound | cell viability [1] [%] | cell viability [2] [%] | cell viability [3] [%] | cell viability [4] [%] | cell viability [5] [%] | cell viability [6] [%] | cell viability [7] [%] | cell viability [8] [%] | cell viability [9] [%] | cell viability [10] [%] | cell viability [11] [%] | cell viability [12] [%] | cell viability [13] [%] | cell viability [14] [%] | cell viability [15] [%] | cell viability [16] [%] | cell viability [17] [%] | cell viability [18] [%] | cell viability [19] [%] | cell viability [20] [%] | cell viability [21] [%] | cell viability [22] [%] | cell viability [23] [%] | cell viability [24] [%] | cell viability [25] [%] | cell viability [26] [%] | cell viability [27] [%] | cell viability [28] [%] | cell viability [29] [%] | cell viability [30] [%] | cell viability [31] [%] | cell viability [32] [%] | cell viability [33] [%] |
| --- | --- | --- | --- | --- | --- | --- | --- | --- | --- | --- | --- | --- | --- | --- | --- | --- | --- | --- | --- | --- | --- | --- | --- | --- | --- | --- | --- | --- | --- | --- | --- | --- | --- |
| C[C@H](NC(=O)Cc1cc(F)cc(F)c1)C(=O)N[C@H](C(=O)OC(C)(C)C)c1ccccc1 | 98.4 | 110 | 98.2 | 101 | 111 | 91.2 | 101 | 73.8 | 91.6 | 91.3 | 80.3 | 88.9 | 84.9 | 92.2 | 80.8 | 92 | 87.4 | 76.1 | 79.3 | 76.4 | 81.9 | 75.4 | 95.3 | 85.3 | 94 | 85.2 | 101 | 92.9 | 91.4 | 92.7 | 92.6 | 79.5 | 82.8 |
| CC[C@H]1OC(=O)[C@H](C)[C@@H](O[C@H]2C[C@@](C)(OC)[C@@H](O)[C@H](C)O2)[C@H](C)[C@@H](O[C@@H]2O[C@H](C)C[C@H](N(C)C)[C@H]2O)[C@](C)(OC)C[C@@H](C)C(=O)[C@H](C)[C@@H](O)[C@]1(C)O | 110 | 121 | 96.8 | 105 | 89.3 | 92.2 | 92.6 | 90.9 | 84.9 | 88.3 | 101 | 103 | 101 | 99.5 | 101 | 97 | 105 | 84 | 92.9 | 81.5 | 79.2 | 81.2 | 86.3 | 87.5 | 83.1 | 92.6 | 93.8 | 87.8 | 79.7 | 80.5 | 84 | 84.4 | 83.4 |
| CC1(C)CC\C2=C(/O1)C3=C(C=CC=C3)C(=O)C2=O | 123 | 112 | 113 | 101 | 112 | 104 | 103 | 118 | 99 | 98.4 | 4.14 | 113 | 104 | 115 | 103 | 108 | 111 | 90.9 | 107 | 108 | 88.2 | 5.12 | 109 | 97.4 | 109 | 113 | 103 | 102 | 101 | 99.9 | 100 | 96.3 | 6.57 |
| CNc1nc(-c2ccc3c(N)n[nH]c3c2)cc(N2C[C@@H](C(=O)NC3CCCCC3)CC[C@H]2C)n1 | 76.9 | 82.3 | 79.8 | 95 | 94.8 | 89.2 | 68.2 | 64.5 | 55.9 | 64.2 | 17.7 | 73.9 | 78 | 76.2 | 80.4 | 89.3 | 80.3 | 77.1 | 84.2 | 69.9 | 73.8 | 19 | 75.9 | 91.8 | 79.2 | 92.5 | 90.2 | 85.5 | 70.3 | 70.8 | 68.2 | 68.2 | 29.7 |
| CN1C(=O)c2sccc2N(C)c2nc(Nc3ccc([S+](N)(=O)[O-])cc3)ncc21 | 113 | 100 | 115 | 104 | 97 | 117 | 105 | 73.4 | 60.5 | 28.5 | 8.75 | 97.2 | 93.2 | 98.4 | 104 | 106 | 90.4 | 90 | 92.9 | 55.3 | 36.4 | 7.28 | 97.8 | 94.7 | 109 | 99.3 | 99 | 95.1 | 98.2 | 70.8 | 53.5 | 33.2 | 4.45 |
| CC(C)C1CCC(C(=O)N[C@H](Cc2ccccc2)C(=O)O)CC1 (stereo partly specified) | 87.3 | 100 | 75.4 | 90.4 | 89.9 | 84.5 | 81.4 | 88.6 | 78 | 76.4 | 91.4 | 93.5 | 88.5 | 91.8 | 89.7 | 92.2 | 91.6 | 85.1 | 80.7 | 84.2 | 81.4 | 84.6 | 92.2 | 96.9 | 98.9 | 94.4 | 92 | 94.8 | 100 | 82.6 | 101 | 82.8 | 92.3 |
| CC1(C)SCCN([S+](=O)([O-])c2ccc(OCC#CCO)cc2)[C@H]1C(=O)NO | 121 | 108 | 102 | 101 | 124 | 126 | 115 | 112 | 99.6 | 107 | 83.7 | 105 | 88.3 | 99.4 | 95.8 | 104 | 93 | 93.9 | 87.5 | 77.5 | 77.4 | 82.4 | 96.3 | 94.8 | 103 | 90.2 | 89.7 | 98.5 | 84.1 | 94.3 | 97.3 | 95.6 | 93.3 |
